Assay results from patent US20070264250A1, “Composition for Skin-Whitening and Wrinkle-Care” (priority 2004, published 2007).

Format: physicochemical
Details: 1 mM, pH 7
Procedure: Stabilities of 2-o-α-glucopyranosyl-L-ascorbic acid and ascorbic acid in an aqueous solution were compared.
(1) 2-o-α-glucopyranosyl-L-ascorbic acid, (2) ascorbic acid, and (3) 2-o-α-glucopyranosyl-L-ascorbic acid and 10 units of α-glucosidase were added to 50 mM potassium phosphate buffer solution (pH 7.0) so that a concentration of each component was 1 mM, to produce test groups. The test groups were stored at 37° C., sampled every day for 5 days, and quantitatively analyzed.
The quantitative analysis (HPLC analysis) for test materials was conducted under conditions described in the following Table 1. An amount of remaining 2-o-α-glucopyranosyl-L-ascorbic acid or ascorbic acid which was not degraded was reduced by an initial concentration, and stability was evaluated using the ratio.
However, almost all vitamin C was degraded within 2 days. […] As well, it was confirmed that converted vitamin C was immediately degraded.

- time within which almost all was degraded: ≤ 2 days
Compound: O=C1O[C@H]([C@@H](O)CO)C(O)=C1O [vitamin C, ascorbic acid]
